# Data from patent publication US11510980B2, “Brartemicin analogues” (VICTORIA LINK LTD, priority 2017, dated 2022).
# Tests used:
# hMincle-Ig = target: T1, hMincle-Ig (Homo sapiens, UniProt Q9ULY5); test: In vitro Mincle binding assay (ELISA) with hMincle-Ig fusion protein; conditions: plate-coated ligand 0.1 nmol/well
# T1 construct: using soluble Mincle-Ig fusion-proteins; made in house
# T1 sequence (Q9ULY5 41-219 limits assumed): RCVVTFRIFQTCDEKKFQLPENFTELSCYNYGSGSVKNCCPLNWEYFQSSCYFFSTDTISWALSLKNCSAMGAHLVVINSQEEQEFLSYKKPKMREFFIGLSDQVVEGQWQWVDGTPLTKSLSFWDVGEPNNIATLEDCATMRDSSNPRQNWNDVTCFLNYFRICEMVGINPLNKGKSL
# Protocol: (§1) Preparation of ligand-coated plates: Brartemicin analogues 9a-9i, TDM (Carbosynth, Sigma Aldrich), and TDB^14 were dissolved in CHCl3:MeOH (2:1, 1 mM), diluted in isopropanol ([…]) and added to 96-well plates (20 μL/well). The solvents were evaporated and the coated plates were used immediately.
# (§2) In vitro Mincle binding assay: The preparation of mMincle- and hMincle-Ig fusion proteins have been previously described. Plate-coated glycolipids 9a-i, TDB, and TDM were incubated with hMincle-Ig, mMincle-Ig, or hIgG1-Fc (Ig) [3 μg/mL in binding buffer (20 mM Tris-HCl, 150 mM NaCl, 1 mM CaCl2), 2 mM MgCl2, pH 7.0)]. Detection of bound protein was achieved via incubation with anti-hIgG-HRP followed by the addition of a colorimetric substrate and measurement of OD at 450 nm. Background was accounted for by subtracting the hIgG1-Fc OD450 values from fusion protein OD450 values
# (§3) The synthesised brartemicin analogues prepared in Example 1 were first tested for their ability to bind to both human and murine Mincle in an enzyme-linked immunosorbent assay (ELISA) using soluble Mincle-Ig fusion-proteins (FIG. 1a).
# mMincle-Ig = target: T2, mMincle-Ig (Mus musculus, UniProt Q9R0Q8); test: In vitro Mincle binding assay (ELISA) with mMincle-Ig fusion protein; parameters: species or system murine; conditions: plate-coated ligand 0.1 nmol/well
# T2 construct: using soluble Mincle-Ig fusion-proteins; made in house
# T2 sequence (Q9R0Q8 46-214 limits assumed): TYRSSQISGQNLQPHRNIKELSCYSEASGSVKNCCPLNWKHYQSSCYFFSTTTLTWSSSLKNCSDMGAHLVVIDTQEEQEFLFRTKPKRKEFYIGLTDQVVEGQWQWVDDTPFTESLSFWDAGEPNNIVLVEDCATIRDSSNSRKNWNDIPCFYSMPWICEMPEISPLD
# Protocol: as §1, §2, §3
# mMincle+FcRγ = target: T3, mMincle+FcRγ (Mus musculus, UniProt Q9R0Q8); test: 2B4-NFAT-GFP reporter cells expressing mMincle+FcRγ; type: cell-based, murine; conditions: ligand-coated plates 0.01, 0.1 or 1 nmol/well, 18 hours
# T3 construct: expressed in transfected cells; host or cells: 2B4-NFAT-GFP reporter cells
# T3 sequence (Q9R0Q8 1-214): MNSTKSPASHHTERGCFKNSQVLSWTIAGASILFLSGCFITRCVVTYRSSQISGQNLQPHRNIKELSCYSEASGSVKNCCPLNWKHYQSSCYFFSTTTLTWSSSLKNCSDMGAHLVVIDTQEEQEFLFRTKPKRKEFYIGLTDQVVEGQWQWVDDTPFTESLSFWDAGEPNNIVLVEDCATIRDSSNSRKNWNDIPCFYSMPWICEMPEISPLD
# T3 sequence (P20491 19-86 partner): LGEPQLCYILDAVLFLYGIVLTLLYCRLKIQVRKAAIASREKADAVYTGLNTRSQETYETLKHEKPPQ
# Protocol: as §1
# (§4) 2B4-NFAT-GFP reporter cells: 2B4-NFAT-GFP reporter cells expressing mMincle+FcRγ, hMincle+FcRγ, or FcRγ only have been previously described. […] The reporter cells were harvested, stained with propidium iodide, and analysed for NFAT-GFP expression using flow cytometry (FACS Calibur).
# (§5) To determine whether the Mincle binding observed in Example 1 correlated with cellular activation, nuclear factor of activated T cells (NFAT)-green fluorescent protein (GFP) reporter cells expressing mMincle or hMincle coupled to FcRγ were stimulated using plates coated with TDM, TDB, brartemicin (9i), or analogues 9a-9h.
# (§6) Activation of the reporter cells was measured through the production of GFP, which was monitored by flow cytometry (FIGS. 1b and 3c).
# (§7) With the compounds 43a-h in hand, the ability of these analogues to bind and signal through Mincle was assessed (FIG. 5). Accordingly, NFAT-GFP reporter cells expressing mMincle+FcRγ, hMincle+FcRγ, or FcRγ-only were stimulated with the 2G-brartemicin analogues 43a-h, TDB, iPrOH, or the p-OC18H37 substituted analogue, 9f. Reporter cell activation was measured by the production of NFAT-GFP, which was analysed by flow cytometry.
# hMincle+FcRγ = target: T4, hMincle+FcRγ (Homo sapiens, UniProt Q9ULY5); test: 2B4-NFAT-GFP reporter cells expressing hMincle+FcRγ; type: cell-based; conditions: ligand-coated plates 0.01, 0.1 or 1 nmol/well, 18 hours
# T4 construct: expressed in transfected cells; host or cells: 2B4-NFAT-GFP reporter cells
# T4 sequence (Q9ULY5 1-219): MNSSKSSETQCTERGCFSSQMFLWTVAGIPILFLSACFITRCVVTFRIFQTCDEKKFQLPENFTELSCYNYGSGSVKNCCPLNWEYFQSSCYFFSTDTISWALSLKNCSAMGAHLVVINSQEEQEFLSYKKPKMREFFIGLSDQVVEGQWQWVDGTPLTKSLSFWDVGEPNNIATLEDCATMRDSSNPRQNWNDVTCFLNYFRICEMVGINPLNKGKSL
# Protocol: as §1, §4, §5, §6, §7
# wild-type GM-CSF BMDMs = test: Cytokine/chemokine production by wild-type GM-CSF BMDMs on ligand-coated plates; type: cell-based, C57BL/6 mice; conditions: wild-type BMDMs, coated plates 0.1 or 1 nmol/well, 24 hours, ELISA
# Protocol: as §1
# Murine bone-marrow derived macrophages: For the preparation of murine bone-marrow derived macrophages, bone marrow cells were collected from the tibias and femurs of C57BL/6 mice and cultured (250,000 cells/mL) in complete RPMI media [RPMI-1640 (Gibco) with 10% heat inactivated fetal bovine serum (Gibco), 100 unit/mL penicillin-streptomycin (Gibco) and 2 mM Glutamax (Gibco)] supplemented with 50 ng/mL GM-CSF (clone X63/GM-CSF murine cells). Cells were incubated at 37° C. (5% CO2) for 8 days (cells fed by replacing half the media on days 3 and 6). On day 8, all media was removed and the cells were washed with Dulbecco's Phosphate-Buffered Saline (DPBS, Gibco) to remove any loosely-adherent cells. The BMDMs were harvested with StemPro Acutase (1 mL/well, 15 minutes at room temperature, Gibco) and seeded onto a pre-coated 96-well plate. The supernatant was collected and analysed for cytokine/chemokine production after 24 hours.
# Cytokine analysis: IL-1β, IFN-γ, IL-6, TNF-α (BD Biosciences), IL-17, and MIP-2 (R&D) levels were determined via sandwich ELISA according to the manufacturer's instructions.
# First, the ability of the compounds to activate GM-CSF BMDMs was determined by monitoring the secretion of the inflammatory cytokines TNF, IL-6, and IL-1β and the chemokine, MIP-2, in a ligand-coated plate assay (FIG. 2).
# To gain insight into the capacity of the 2G-series of brartemicin analogues to induce an inflammatory immune response, the analogues were then screened for their ability to activate WT and Mincle^−/− BMDMs, with cellular activation being determined by the measurement of IL-1B using ELISA (FIG. 6).
# C57BL/6 mice = test: Delayed-type hypersensitivity immunisation with OVA in oil-in-water emulsion; type: in vivo
# Protocol: Delayed-type hypersensitivity: Mice were sensitised by subcutaneous injection with oil-in-water emulsions (mineral oil/Tween-80/PBS, 9:1:90, v/v/v) containing OVA only (200 μg), OVA+TDB (OVA=200 μg, TDB=0.3 μmol), OVA+9a (OVA=200 μg, 9a=0.3 μmol) or no OVA. After seven days, the mice were challenged with OVA (100 μg/footpad) and after a further seven days, the mice were sacrificed and their spleens harvested. For in vitro restimulation, splenocytes were restimulated with OVA and analysed for spenocyte number (measured at 450 nm after 3 hours, Cell Count Reagent SF, Nacalai Tesque Inc.), IFN-γ production, and IL-17 production. Footpad swelling was measured using a venier caliper pre-challenge, 24 hours post-challenge, and 48 hours post-challenge. Sera were collected from each mouse on days 0, 7, and 14 and analysed for OVA-specific antibody titers by ELISA using HRP coupled goat anti-mouse IgG (GE Health-care), IgG1, IgG2b, IgG2c, and IgG3 (SouthernBiotec). EC50 were defined by plotting the absorbance at 450 nm against log of serum concentration. Antibody titration curves were plotted using GraphPad Prism7 (GraphPad Software).
# Compound 9a was then evaluated in vivo to confirm its capacity to induce a Th1 antigen-specific response using a delayed-type hypersensitivity immunisation protocol. To this end, four groups of C57BL/6 mice were immunised by subcutaneous injection with oil-in-water emulsions containing either OVA only, OVA+C18dMeBrar (9a), OVA+TDB, or no OVA. After seven days the mice were challenged with OVA (100 μg per footpad) and after a further seven days, the splenocytes were isolated and restimulated with OVA at three concentrations (10, 30, or 100 μg/mL). The immune response was measured by determining footpad swelling, production of IFN-γ and IL-17 (FIG. 7b), T cell proliferation (FIG. 4a), and antibody titres (FIG. 4c). […] Accordingly, the ability of C18dMeBrar (9a) to lead to an enhanced Th1 immune response was even more striking. This overall immune profile was also reflected in the antibody production by immunised mice. […] A high IgG2c:IgG1 ratio is commonly associated with Th1 responses and a lower ratio is associated with Th2 responses. The production of IgG2c in mice immunised with C18dMeBrar increased three-fold as compared to OVA alone, providing evidence that C18dMeBrar induces a Th1-biased immune response.
Compound,"binding to hMincle-Ig (ELISA, OD at 450 nm) (hMincle-Ig)","binding to mMincle-Ig (ELISA, OD at 450 nm) (mMincle-Ig)",activation of mMincle NFAT-GFP reporter cells (GFP by flow cytometry) (mMincle+FcRγ),activation of hMincle NFAT-GFP reporter cells (GFP by flow cytometry) (hMincle+FcRγ),MIP-2 production (wild-type GM-CSF BMDMs),IL-1β production (wild-type GM-CSF BMDMs),IL-6 production (wild-type GM-CSF BMDMs),TNF production (wild-type GM-CSF BMDMs),"Th1 immune response / adjuvant activity in vivo (C57BL/6 mice; s.c. OVA 200 μg + adjuvant 0.3 μmol, oil-in-water emulsion)","footpad swelling (C57BL/6 mice; s.c. OVA 200 μg + adjuvant 0.3 μmol, OVA challenge 100 μg/footpad)","IL-17 production by splenocytes restimulated with OVA (C57BL/6 mice; s.c. OVA 200 μg + adjuvant 0.3 μmol, restimulation 10, 30 or 100 μg/mL OVA)","antigen specific IFN-γ production, all concentrations of OVA (C57BL/6 mice; s.c. OVA 200 μg + adjuvant 0.3 μmol, splenocytes restimulated with 10, 30 or 100 μg/mL OVA)","IgG1 antibody production (C57BL/6 mice; serum, ELISA)","IgG2b antibody production (C57BL/6 mice; serum, ELISA)","IgG2c antibody production (C57BL/6 mice; serum, ELISA)","production of OVA-specific IgG antibodies (C57BL/6 mice; serum, ELISA)"
"CCCCOc1ccc(C(=O)OCC2O[C@H](O[C@H]3OC(COC(=O)c4ccc(OCCCC)cc4O)[C@@H](O)C(O)C3O)C(O)C(O)[C@@H]2O)c(O)c1 (stereo partly drawn) [9c, 6,6′-Di-O-(2-hydroxy-4-butoxybenzoyl)-α,α′-D-trehalose]",did not bind hMincle- or mMincle-Ig to any great extent,did not bind hMincle- or mMincle-Ig to any great extent,able to activate mMincle and hMincle only at high ligand concentrations,able to activate mMincle and hMincle only at high ligand concentrations,induced MIP-2,–,–,–,–,–,–,–,–,–,–,–
"trehalose dimycolate [TDM, reference compound]",–,–,–,–,significant production,significant production,significant production,significant production,–,–,–,–,–,–,–,–
"O=C(OCC1O[C@H](O[C@H]2OC(COC(=O)c3ccc(O)cc3O)[C@@H](O)C(O)C2O)C(O)C(O)[C@@H]1O)c1ccc(O)cc1O (stereo partly drawn) [9e, 6,6′-Di-O-(2,4-dihydroxybenzoyl)-α,α′-D-trehalose]",did not bind hMincle- or mMincle-Ig to any great extent,did not bind hMincle- or mMincle-Ig to any great extent,did not significantly activate mMincle,–,did not induce the production of any of the cytokines measured,did not induce the production of any of the cytokines measured,did not induce the production of any of the cytokines measured,did not induce the production of any of the cytokines measured,–,–,–,–,–,–,–,–
"CCCCCCCCCCCCCCCCCCCCCC(=O)OC[C@H]1O[C@H](O[C@H]2O[C@H](COC(=O)CCCCCCCCCCCCCCCCCCCCC)[C@@H](O)[C@H](O)[C@H]2O)[C@H](O)[C@@H](O)[C@@H]1O [TDB, trehalose dibehenate, reference compound]",–,–,–,–,significant production,significant production,significant production,significant production,limited efficacy,neither 9a nor TDB induced any,neither 9a nor TDB induced any,did not lead to a significant increase,showed increases,showed increases,showed increases,elevated the production of IgG antibodies
"COc1ccc(C(=O)OCC2O[C@H](O[C@H]3OC(COC(=O)c4ccc(OC)cc4O)[C@@H](O)C(O)C3O)C(O)C(O)[C@@H]2O)c(O)c1 (stereo partly drawn) [9d, 6,6′-Di-O-(2-hydroxy-4-methoxybenzoyl)-α,α′-D-trehalose]",did not bind hMincle- or mMincle-Ig to any great extent,did not bind hMincle- or mMincle-Ig to any great extent,–,only modest activation of hMincle at a high ligand concentration,did not induce the production of any of the cytokines measured,did not induce the production of any of the cytokines measured,did not induce the production of any of the cytokines measured,did not induce the production of any of the cytokines measured,–,–,–,–,–,–,–,–
